Active and inactive are the calls of the source.

Experiment [1] deals with BJ. The experiment in a line: cells. The experiment is classed as functional, cell-based. Particulars: Homo sapiens.
The target in experiment [2] is T1, Replicative DNA helicase DnaB (Mycobacterium tuberculosis, UniProt P9WMR3).
T1 sequence (P9WMR3 whole entry): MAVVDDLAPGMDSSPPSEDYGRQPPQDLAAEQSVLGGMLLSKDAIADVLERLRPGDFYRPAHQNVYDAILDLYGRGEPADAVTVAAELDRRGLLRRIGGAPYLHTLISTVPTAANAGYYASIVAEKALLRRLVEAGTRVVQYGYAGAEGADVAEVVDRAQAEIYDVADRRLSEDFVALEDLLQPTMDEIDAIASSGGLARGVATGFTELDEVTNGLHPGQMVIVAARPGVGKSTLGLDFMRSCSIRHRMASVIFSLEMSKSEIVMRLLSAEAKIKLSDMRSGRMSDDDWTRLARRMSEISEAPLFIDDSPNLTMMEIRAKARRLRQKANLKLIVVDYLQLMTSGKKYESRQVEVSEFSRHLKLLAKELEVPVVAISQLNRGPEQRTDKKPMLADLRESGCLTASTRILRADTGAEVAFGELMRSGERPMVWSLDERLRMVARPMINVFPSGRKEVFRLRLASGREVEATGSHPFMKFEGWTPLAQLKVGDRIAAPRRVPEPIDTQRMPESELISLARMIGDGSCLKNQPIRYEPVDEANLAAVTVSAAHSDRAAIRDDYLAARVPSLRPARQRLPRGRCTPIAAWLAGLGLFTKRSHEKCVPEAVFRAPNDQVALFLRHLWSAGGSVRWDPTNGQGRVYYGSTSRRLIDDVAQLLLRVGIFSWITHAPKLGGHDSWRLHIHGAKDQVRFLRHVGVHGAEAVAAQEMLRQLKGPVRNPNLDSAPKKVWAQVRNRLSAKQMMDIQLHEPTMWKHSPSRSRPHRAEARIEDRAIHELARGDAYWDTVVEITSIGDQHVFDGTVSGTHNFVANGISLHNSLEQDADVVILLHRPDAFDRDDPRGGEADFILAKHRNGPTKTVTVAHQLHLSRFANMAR
Nature of the experiment: DnaB intein splicing inhibitors, dose response, biochemical, cell-free fluorescence (AID 449749). The experiment is classed as functional.

Experiment [3] concerns BJ. The experiment in a line: cytotoxicity toward BJ-TERT-LT-ST fibroblasts, dose response, cell-based, RAS-independent, luminescence (AID 1935).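 Also: BJ fibroblasts immortalized with TERT plus LT and ST oncogenes.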 The experiment is classed as functional. The settings on record: Homo sapiens.
For experiment [4], the target named is T2, Sentrin-specific protease 6 (Homo sapiens, UniProt Q9GZR1).
T2 sequence (Q9GZR1 whole entry): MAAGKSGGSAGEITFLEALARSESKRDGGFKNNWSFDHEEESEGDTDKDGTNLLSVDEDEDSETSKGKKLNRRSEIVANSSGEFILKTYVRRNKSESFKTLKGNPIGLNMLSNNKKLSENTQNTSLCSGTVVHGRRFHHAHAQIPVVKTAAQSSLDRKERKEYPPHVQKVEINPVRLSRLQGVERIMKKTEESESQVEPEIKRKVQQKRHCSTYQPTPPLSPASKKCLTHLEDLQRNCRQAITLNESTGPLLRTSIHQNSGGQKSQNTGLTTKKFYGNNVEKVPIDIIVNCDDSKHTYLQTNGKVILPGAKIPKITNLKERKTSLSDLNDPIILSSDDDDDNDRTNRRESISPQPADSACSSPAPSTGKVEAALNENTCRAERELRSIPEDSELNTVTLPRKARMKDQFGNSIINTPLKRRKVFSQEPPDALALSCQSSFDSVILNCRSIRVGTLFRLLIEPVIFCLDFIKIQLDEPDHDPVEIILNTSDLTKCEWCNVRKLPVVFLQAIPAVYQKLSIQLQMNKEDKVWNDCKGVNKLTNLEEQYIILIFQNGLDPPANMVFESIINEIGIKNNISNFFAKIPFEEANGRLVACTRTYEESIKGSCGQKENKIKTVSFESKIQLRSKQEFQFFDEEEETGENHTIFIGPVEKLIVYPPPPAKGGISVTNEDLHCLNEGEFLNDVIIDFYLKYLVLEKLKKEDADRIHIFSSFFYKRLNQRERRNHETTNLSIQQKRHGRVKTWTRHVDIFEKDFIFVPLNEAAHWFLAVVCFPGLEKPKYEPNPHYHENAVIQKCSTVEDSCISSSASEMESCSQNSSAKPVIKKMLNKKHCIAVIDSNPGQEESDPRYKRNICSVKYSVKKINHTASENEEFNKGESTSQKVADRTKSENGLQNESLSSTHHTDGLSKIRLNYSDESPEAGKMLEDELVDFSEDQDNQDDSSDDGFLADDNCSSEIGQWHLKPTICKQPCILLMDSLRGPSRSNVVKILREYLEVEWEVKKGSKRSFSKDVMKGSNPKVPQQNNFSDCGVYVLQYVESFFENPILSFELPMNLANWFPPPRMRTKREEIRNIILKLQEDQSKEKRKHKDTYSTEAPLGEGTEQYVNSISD
The experiment in a line: SENP6 protease inhibitors, SAR follow-up, biochemical, luminescence, set 2 (AID 588598). The experiment is classed as functional.

Experiment [5] has as its target T3, Sentrin-specific protease 8 (Homo sapiens, UniProt Q96LD8).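 Also: luminescence read-out of SENP8 inhibition, dose-response confirmation following an ultra-high-throughput screen.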
T3 sequence (Q96LD8 whole entry): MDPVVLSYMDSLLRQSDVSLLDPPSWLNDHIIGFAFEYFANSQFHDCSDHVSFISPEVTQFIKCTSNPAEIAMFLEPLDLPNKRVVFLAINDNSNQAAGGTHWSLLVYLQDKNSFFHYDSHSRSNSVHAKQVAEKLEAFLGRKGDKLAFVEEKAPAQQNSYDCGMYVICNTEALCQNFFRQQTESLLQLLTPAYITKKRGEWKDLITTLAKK
The experiment is classed as functional.

Another experiment deals with T4, Caspase-3 (Homo sapiens, UniProt P42574).
T4 sequence (P42574 whole entry): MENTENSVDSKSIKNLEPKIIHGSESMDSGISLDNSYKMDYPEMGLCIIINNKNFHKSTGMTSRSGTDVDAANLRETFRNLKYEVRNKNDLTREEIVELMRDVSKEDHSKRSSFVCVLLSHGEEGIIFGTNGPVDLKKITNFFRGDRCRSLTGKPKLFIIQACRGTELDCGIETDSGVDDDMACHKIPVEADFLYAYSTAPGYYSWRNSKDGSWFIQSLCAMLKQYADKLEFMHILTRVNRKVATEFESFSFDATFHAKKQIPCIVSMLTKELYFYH
The experiment is classed as functional.

For another experiment, the system named is HEK293. The experiment in a line: cells. The experiment is classed as functional, cell-based. Particulars: Homo sapiens.
Experiment [6] concerns the target T5, RNA-binding protein pos-1 (Caenorhabditis elegans, UniProt G5EF15).
T5 sequence (G5EF15 whole entry): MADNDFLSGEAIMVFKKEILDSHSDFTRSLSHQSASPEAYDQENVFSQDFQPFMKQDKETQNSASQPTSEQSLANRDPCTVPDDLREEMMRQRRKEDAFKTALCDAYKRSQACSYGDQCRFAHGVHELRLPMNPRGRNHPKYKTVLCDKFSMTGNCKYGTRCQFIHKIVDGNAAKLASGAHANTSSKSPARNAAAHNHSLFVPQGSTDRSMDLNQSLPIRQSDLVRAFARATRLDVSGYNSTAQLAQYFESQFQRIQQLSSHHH
Nature of the experiment: inhibitors of POS-1/mex-3 RNA binding, dose response, biochemical, fluorescence polarization (AID 1964).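 Also: purified POS-1 fused to maltose binding protein made in E. coli; potency of compounds blocking POS-1 binding to fluorescent RNA.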

Take `Cc1nn(-c2ccccc2)c(Cl)c1CN(C(=O)CCl)c1ccc(Cl)cc1`: the EC50 is 2.82 µM (inconclusive) in the experiment on BJ [1] and 3.36 µM (inconclusive) with BJ [3]. Also, the AC50 in experiment [2] was 1.52 µM (active).
For `Oc1ccccc1/C=C/c1noc(-c2ccccc2O)n1`, the IC50 in experiment [4] is 62.4 µM (active); in experiment [5] it was > 100 µM (inactive); at Caspase-3, 39.7 µM (active); in the experiment with HEK293, > 67.5 µM (inactive).
Regarding `Cc1cccc(N=Nc2ccc(N(C)C)cc2)c1`, the IC50 in experiment [5] is 3.74 µM (active); on Caspase-3, 5.57 µM (active).
As to `O=C(O)CSc1cc(NS(=O)(=O)c2ccc(Cl)cc2)c2ccccc2c1O`, the half-maximal activity concentration (AC50) in experiment [2] was 2.91 µM (active). The EC50 in experiment [6] was 36.8 µM (active).
Turning to `COc1ccccc1N1C(=O)Cc2ccccc2C1=O`, the IC50 in experiment [5] is 49.4 µM (active); on Caspase-3 it was 4.61 µM (active). In addition, the AC50 in experiment [2] is > 380 µM (inactive).
